Measurements from patent publication US8802103B2, “Compositions and methods for diagnosing and treating cancer” (OncoMed Pharmaceuticals, Inc., priority 2007, dated 2014).

Tested on: UM-C17 colon tumor cells
Experiment: UM-C17 colon tumor xenograft growth
Assay type: in vivo, NOD/SCID mice
Conditions: 10 mg/kg i.p. two times per week from day 19, tumors approximately 100 mm^3
Protocol: In certain embodiments, anti-Jagged 1 antibodies were analyzed for their ability to reduce the growth of UM-C17 colon tumor cells. Dissociated UM-C17 cells (10,000 per animal) were injected subcutaneously into the right flank region of 6-8 week old NOD/SCID mice. Day 19 after tumor cell injection, when tumors were approximately 100 mm^3, animals were injected intraperitoneal (i.p.) with either 10 mg/kg 64M14 anti-Jagged 1 antibodies, 10 mg/kg 64M14 anti-Jagged 1 antibody and 10 mg/kg Avastin (anti-VEGF), Avastin alone, or control antibody anti-DNP (dinitrophenol or anti-hapten) (n=10 per group) two times per week for the duration of the experiment. Both treatment with 64M14 antibodies and Avastin reduced tumor growth by close to 50% compared to controls (FIG. 4).

Avastin: anti-VEGF antibody was tested, and the “reduction of tumor growth compared to control antibodies” value was ~50%.
